Measured values reported in patent publication US8143068B2, “Oxidation resistant indicator molecules” (Sensors for Medicine and Science, Inc., priority 2006, dated 2012).
Like-named read-outs stand apart in the source and are kept apart here.

Key:
[1] = Modulation of fluorescence by varying concentrations of glucose (Example 1, FIG. 1)
Protocol: The modulation of the fluorescence of various molecules (depicted in FIG. 5) by varying concentrations of glucose was determined. […] In a further experiment, the unsubstituted control and two compounds of the present invention (4-trifluoromethyl and 3,4-difluoro) were subjected to oxidation treatment with 1 mM hydrogen peroxide, and the loss of fluorescence intensity was measured.

[2] = Stability of indicator gels towards oxidant: 1 mM hydrogen peroxide in PBS at 37° C.; type: physicochemical; details: indicator gel
Protocol: Several compounds of the present invention were each copolymerized with hydroxyethyl methacrylate (HEMA), acrylic acid and ethylene glycol dimethacrylate (EGDMA) to form water insoluble polymer gels, as in Example 3. Their stability towards oxidant was assessed by subjecting the gels to 1 mM hydrogen peroxide in PBS at 37° C. […] In a further experiment, the fluorescent change (% modulation) from 0 to 20 mM glucose of various indicator gels was measured and the results are shown in FIG. 8.

[3] = Fluorescence and glucose response of indicator gels (Table 1); type: binding; details: indicator gel; for Kd: 37° C.
[4] = Long term exposure of indicator gels to 10 μM hydrogen peroxide and 4 mM glucose/PBS at 37° C., loss of fluorescence intensity; type: physicochemical; details: indicator gel
Protocol: Several gels (produced as in Example 3) containing compounds of the present invention (4-trifluoromethyl, 3,4-difluoro and 4-fluoro) and a control (unsubstituted) were subjected to long term exposure to 10 μM hydrogen peroxide and 4 mM glucose/PBS at 37° C., and the loss of fluorescence intensity was measured.
Two compounds according to the present invention (4-trifluoromethyl and 3,4-difluoro) and the unsubstituted control were each copolymerized with hydroxyethyl methacrylate (HEMA) and acrylic acid, and crosslinked with ethylene glycol dimethacrylate (EGDMA) to form a water insoluble polymer graft, which was then implanted into a rat to be subjected to in vivo oxidation for 22 or 43 days.

[5] = Stability of indicator gels in 1 mM hydrogen peroxide in the presence of 4 mM glucose in PBS at 37° C.; type: physicochemical; details: indicator gel
Protocol: Several compounds of the present invention were each copolymerized with hydroxyethyl methacrylate (HEMA), acrylic acid and ethylene glycol dimethacrylate (EGDMA) to form water insoluble polymer gels, as in Example 3. Their stability towards oxidant was assessed by subjecting the gels to 1 mM hydrogen peroxide in PBS at 37° C. In a further experiment, two of the indicator gels (the 4-trifluoromethyl and 4-trifluoromethylsulfone gels) were subjected to 1 mM hydrogen peroxide in the presence of 4 mM glucose in PBS at 37° C. In a further experiment, the fluorescent change (% modulation) from 0 to 20 mM glucose of various indicator gels was measured and the results are shown in FIG. 8.

[6] = aqueous association with glucose; cited from earlier work

Row | Compound | t 1/2 [2] | further results
1 | 9-[N-[2-(4,4,5,5,-tetramethyl-1,3,2-dioxaborolano)-3-methylbenzyl]-N-[3-(methacrylamido)propylamino]methyl]-10-[N-[2-(4,4,5,5,-tetramethyl-1,3,2-dioxaborolano)-3-methylbenzyl]-N-[2-(carboxyethyl)amino]methyl]anthracene [Indicator 2-Methyl] | – | modulation of the fluorescence by glucose [1]: did not modulate well
2 | 9-[N-[2-(4,4,5,5,-tetramethyl-1,3,2-dioxaborolano)-4-(trifluoromethyl)benzyl]-N-[3-(methacrylamido)propylamino]methyl]-10-[N-[2-(4,4,5,5-tetra-methyl-1,3,2-dioxaborolano)-4-(trifluoromethyl)benzyl]-N-[2-(carboxyethyl)amino]methyl]-anthracene sodium salt [5-Trifluoromethyl] | 24 min | –
3 | 9-[N-[6-(4,4,5,5,-tetramethyl-1,3,2-dioxaborolano)-2,3-dichlorobenzyl]-N-[3-(methacrylamido)propylamino]methyl]-10-[N-[6-(4,4,5,5,-tetramethyl-1,3,2-dioxaborolano)-2,3-dichlorobenzyl]-N-[2-(carboxyethyl)amino]methyl]anthracene sodium salt [3,4-Dichloro] | 32 min | –
4 | 9-[N-[6-(4,4,5,5,-tetramethyl-1,3,2-dioxaborolano)-2,3-difluorobenzyl]-N-[3-(methacrylamido)propylamino]methyl]-10-[N-[6-(4,4,5,5,-tetramethyl-1,3,2-dioxaborolano)-2,3-difluorobenzyl]-N-[2-(carboxyethyl)amino]methyl]anthracene sodium salt [3,4-Difluoro] | 13 min | AVERAGE % MODULATION (0 to 20 mM glucose) [3]: 137%; Kd [3]: 30.9 mM; HALF LIFE (days) at 37° C. in 4 mM glucose and 10 μM H2O2 [4]: 33 days
5 | 9-[N-[6-(4,4,5,5,-tetramethyl-1,3,2-dioxaborolano)-2,4-(dichloro)benzyl]-N-[3-(methacrylamido)propylamino]methyl]-10-[N-[6-(4,4,5,5,-tetramethyl-1,3,2-dioxaborolano)-2,4-(dichloro)benzyl]-N-[2-(carboxyethyl)amino]-methyl]anthracene sodium salt [3,5-Dichloro] | 22 min | –
6 | 9-[N-[6-(4,4,5,5,-tetramethyl-1,3,2-dioxaborolano)-2,4-bis(trifluoromethyl)benzyl]-N-[3-(methacrylamido)propylamino]methyl]-10-[N-[6-(4,4,5,5,-tetramethyl-1,3,2-dioxaborolano)-2,4-bis(trifluoromethyl)benzyl]-N-[2-(carboxyethyl)amino]-methyl]anthracene sodium salt [3,5-Bis(trifluoromethyl)] | 495 min | –
7 | 9-[N-[6-(4,4,5,5,-tetramethyl-1,3,2-dioxaborolano)-3-(trifluoromethyl)benzyl]-N-[3-(methacrylamido)propylamino]methyl]-10-[N-[6-(4,4,5,5,-tetramethyl-1,3,2-dioxaborolano)-3-(trifluoromethyl)benzyl]-N-[2-(carboxyethyl)amino]methyl]anthracene sodium salt [4-Trifluoromethyl] | 17 min | AVERAGE % MODULATION (0 to 20 mM glucose) [3]: 191%; Kd [3]: 12.2 mM; HALF LIFE (days) at 37° C. in 4 mM glucose and 10 μM H2O2 [4]: 26 days; t 1/2 (minutes), in 4 mM Glucose Solution [5]: 30 min
8 | 9-[N-[6-(4,4,5,5,-tetramethyl-1,3,2-dioxaborolano)-3-cyanobenzyl]-N-[3-(methacrylamido)propylamino]methyl]-10-[N-[6-(4,4,5,5,-tetramethyl-1,3,2-dioxaborolano)-3-cyanobenzyl]-N-[2-(carboxyethyl)amino]methyl]anthracene sodium salt [Indicator 4-Cyano] | 18 min | –
9 | 9-[N-[6-(4,4,5,5,-tetramethyl-1,3,2-dioxaborolano)-3-fluorobenzyl]-N-[3-(methacrylamido)propylamino]methyl]-10-[N-[6-(4,4,5,5,-tetramethyl-1,3,2-dioxaborolano)-3-fluorobenzyl]-N-[2-(carboxyethyl)amino]methyl]anthracene sodium salt [Indicator 4-Fluoro] | 13 min | –
10 | C=C(C)C(=O)NCCCN(Cc1cc(OC(F)(F)F)ccc1B1OC(C)(C)C(C)(C)O1)Cc1c2ccccc2c(CN(CCC(=O)[O-])Cc2cc(OC(F)(F)F)ccc2B2OC(C)(C)C(C)(C)O2)c2ccccc12.[Na+] [4-Trifluoromethoxy, 9-[N-[6-(4,4,5,5,-tetramethyl-1,3,2-dioxaborolano)-3-(trifluoromethoxy)benzyl]-N-[3-(methacrylamido)propylamino]methyl]-10-[N-[6-(4,4,5,5-tetra-methyl-1,3,2-dioxaborolano)-3-(trifluoromethoxy)benzyl]-N-[2-(carboxyethyl)amino]methyl]-anthracene sodium salt] | 24 min | –
11 | C=C(C)C(=O)NCCCN(Cc1cc([N+](=O)[O-])ccc1B1OC(C)(C)C(C)(C)O1)Cc1c2ccccc2c(CN(CCC(=O)[O-])Cc2cc([N+](=O)[O-])ccc2B2OC(C)(C)C(C)(C)O2)c2ccccc12.[Na+] [Indicator 4-Nitro, 9-[N-[6-(4,4,5,5,-tetramethyl-1,3,2-dioxaborolano)-3-nitrobenzyl]-N-[3-(methacrylamido)propylamino]methyl]-10-[N-[6-(4,4,5,5,-tetramethyl-1,3,2-dioxaborolano)-3-nitrobenzyl]-N-[2-(carboxyethyl)amino]methyl]anthracene sodium salt] | – | modulation of the fluorescence by glucose [1]: did not modulate well
12 | C=C(C)C(=O)NCCCN(Cc1ccc(F)cc1B1OC(C)(C)C(C)(C)O1)Cc1c2ccccc2c(CN(CCC(=O)[O-])Cc2ccc(F)cc2B2OC(C)(C)C(C)(C)O2)c2ccccc12.[Na+] [Indicator 5-Fluoro, 9-[N-[2-(4,4,5,5,-tetramethyl-1,3,2-dioxaborolano)-4-fluorobenzyl]-N-[3-(methacrylamido)propylamino]methyl]-10-[N-[2-(4,4,5,5,-tetramethyl-1,3,2-dioxaborolano)-4-fluorobenzyl]-N-[2-(carboxyethyl)amino]methyl]anthracene sodium salt] | 6 min | –
13 | OB(O)c1ccccc1 [phenylboronic acid] | – | Kd [6]: 9.1 mM
